Data as given in ChEMBL document CHEMBL1811776, “Discovery of benzimidazole derivatives as novel multi-target EGFR, VEGFR-2 and PDGFR kinase inhibitors” (Bioorg Med Chem, 2011).
Values belong to the compound of their own block, whether it stands above or below them. Activity calls are given as the source filed them. The rule behind the calls is not given here.

What was measured:
HepG2 [1] = assay: cells; conditions: Homo sapiens, HepG2, 72 h
Description: Cytotoxicity against human HepG2 cells after 72 hrs by MTT assay

[2] = biological target: Vascular endothelial growth factor receptor 1 (Homo sapiens) (UniProt P17948); assay: Inhibition of VEGFR-1 at 50 uM after 1 hrs by luminescence assay
Chain of Vascular endothelial growth factor receptor 1 (Homo sapiens) (P17948 whole entry): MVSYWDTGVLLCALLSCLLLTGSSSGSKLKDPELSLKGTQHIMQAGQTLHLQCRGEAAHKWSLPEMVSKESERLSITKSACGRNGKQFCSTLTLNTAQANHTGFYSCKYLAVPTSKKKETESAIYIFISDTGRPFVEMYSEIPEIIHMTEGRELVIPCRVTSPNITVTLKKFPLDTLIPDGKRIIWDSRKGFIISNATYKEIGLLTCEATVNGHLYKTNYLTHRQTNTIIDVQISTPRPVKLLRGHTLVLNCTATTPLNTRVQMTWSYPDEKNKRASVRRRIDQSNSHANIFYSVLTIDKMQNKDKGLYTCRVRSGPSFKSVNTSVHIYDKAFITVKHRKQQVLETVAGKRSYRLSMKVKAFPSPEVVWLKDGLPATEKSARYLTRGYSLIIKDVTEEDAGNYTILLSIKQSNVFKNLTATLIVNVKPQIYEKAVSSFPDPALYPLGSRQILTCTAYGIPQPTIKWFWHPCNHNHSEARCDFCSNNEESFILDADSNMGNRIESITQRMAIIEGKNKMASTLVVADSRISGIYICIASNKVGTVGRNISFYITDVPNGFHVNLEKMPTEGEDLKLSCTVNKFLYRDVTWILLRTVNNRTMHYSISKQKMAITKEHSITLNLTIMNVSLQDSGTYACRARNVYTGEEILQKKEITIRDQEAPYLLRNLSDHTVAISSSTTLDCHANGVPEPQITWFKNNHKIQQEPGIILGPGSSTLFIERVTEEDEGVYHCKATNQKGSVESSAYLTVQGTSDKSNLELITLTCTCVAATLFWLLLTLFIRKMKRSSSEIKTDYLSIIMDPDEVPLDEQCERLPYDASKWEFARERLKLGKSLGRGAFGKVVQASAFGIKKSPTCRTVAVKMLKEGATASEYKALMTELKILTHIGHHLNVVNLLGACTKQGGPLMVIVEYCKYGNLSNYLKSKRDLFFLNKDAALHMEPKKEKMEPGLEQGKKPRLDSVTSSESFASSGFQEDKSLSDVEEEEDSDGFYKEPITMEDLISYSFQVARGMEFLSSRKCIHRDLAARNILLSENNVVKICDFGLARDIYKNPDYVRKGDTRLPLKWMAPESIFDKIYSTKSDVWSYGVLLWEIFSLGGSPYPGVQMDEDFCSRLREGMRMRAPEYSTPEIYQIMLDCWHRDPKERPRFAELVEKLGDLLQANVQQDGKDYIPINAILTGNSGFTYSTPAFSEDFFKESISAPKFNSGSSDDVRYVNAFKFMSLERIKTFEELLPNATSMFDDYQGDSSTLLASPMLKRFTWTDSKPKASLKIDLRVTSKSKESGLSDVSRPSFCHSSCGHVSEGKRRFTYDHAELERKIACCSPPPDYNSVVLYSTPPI

HepG2 [3] = assay: Induction of apoptosis in human HepG2 cells assessed as early apoptotic cells at 2 uM after 72 hrs using annexin V-propidium iodide staining based flow cytometric analysis; assay type: functional
[4] = biological target: Phosphatidylinositol 4,5-bisphosphate 3-kinase catalytic subunit alpha isoform (Homo sapiens) (UniProt P42336); assay: Inhibition of PI3K-alpha at 50 uM after 1 hrs by luminescence assay
Chain of Phosphatidylinositol 4,5-bisphosphate 3-kinase catalytic subunit alpha isoform (Homo sapiens) (P42336 whole entry, canonical isoform): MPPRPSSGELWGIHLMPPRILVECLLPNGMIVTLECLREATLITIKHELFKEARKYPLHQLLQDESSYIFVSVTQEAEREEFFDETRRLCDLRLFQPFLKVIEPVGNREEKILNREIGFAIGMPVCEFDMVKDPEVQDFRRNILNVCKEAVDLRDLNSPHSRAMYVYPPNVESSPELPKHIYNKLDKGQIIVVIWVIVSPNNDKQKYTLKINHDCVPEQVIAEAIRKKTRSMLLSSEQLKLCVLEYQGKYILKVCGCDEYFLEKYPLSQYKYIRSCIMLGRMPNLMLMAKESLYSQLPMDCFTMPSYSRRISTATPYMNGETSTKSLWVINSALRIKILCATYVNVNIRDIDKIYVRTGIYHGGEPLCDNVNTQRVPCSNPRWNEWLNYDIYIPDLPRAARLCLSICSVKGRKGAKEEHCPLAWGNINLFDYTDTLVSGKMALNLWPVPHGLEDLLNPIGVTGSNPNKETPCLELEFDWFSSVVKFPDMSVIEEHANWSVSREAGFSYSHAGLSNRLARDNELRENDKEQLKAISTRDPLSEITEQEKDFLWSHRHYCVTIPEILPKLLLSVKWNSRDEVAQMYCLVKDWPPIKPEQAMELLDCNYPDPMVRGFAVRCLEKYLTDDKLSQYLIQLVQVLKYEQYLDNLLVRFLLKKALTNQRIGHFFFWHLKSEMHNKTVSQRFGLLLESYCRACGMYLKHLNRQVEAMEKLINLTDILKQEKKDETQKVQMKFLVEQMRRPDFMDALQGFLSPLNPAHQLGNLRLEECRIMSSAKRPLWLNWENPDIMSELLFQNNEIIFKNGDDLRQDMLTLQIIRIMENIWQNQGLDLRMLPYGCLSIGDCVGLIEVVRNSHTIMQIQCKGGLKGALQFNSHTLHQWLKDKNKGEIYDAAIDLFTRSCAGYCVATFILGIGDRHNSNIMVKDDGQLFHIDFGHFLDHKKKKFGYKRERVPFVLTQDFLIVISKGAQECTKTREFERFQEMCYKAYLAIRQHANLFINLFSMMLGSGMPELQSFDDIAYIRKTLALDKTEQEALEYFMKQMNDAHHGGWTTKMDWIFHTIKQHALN

[5] = biological target: Platelet-derived growth factor receptor alpha (Homo sapiens) (UniProt P16234); assay: Inhibition of PDGFR-alpha at 50 uM after 1 hrs by luminescence assay
HepG2 [6] = assay: Induction of apoptosis in human HepG2 cells assessed as late apoptotic or dead cells at 2 uM after 72 hrs using annexin V-propidium iodide staining based flow cytometric analysis; assay type: functional
[7] = biological target: Vascular endothelial growth factor receptor 2 (Homo sapiens) (UniProt P35968); assay: Inhibition of VEGFR-2 at 50 uM after 1 hrs by luminescence assay
Chain of Vascular endothelial growth factor receptor 2 (Homo sapiens) (P35968 whole entry): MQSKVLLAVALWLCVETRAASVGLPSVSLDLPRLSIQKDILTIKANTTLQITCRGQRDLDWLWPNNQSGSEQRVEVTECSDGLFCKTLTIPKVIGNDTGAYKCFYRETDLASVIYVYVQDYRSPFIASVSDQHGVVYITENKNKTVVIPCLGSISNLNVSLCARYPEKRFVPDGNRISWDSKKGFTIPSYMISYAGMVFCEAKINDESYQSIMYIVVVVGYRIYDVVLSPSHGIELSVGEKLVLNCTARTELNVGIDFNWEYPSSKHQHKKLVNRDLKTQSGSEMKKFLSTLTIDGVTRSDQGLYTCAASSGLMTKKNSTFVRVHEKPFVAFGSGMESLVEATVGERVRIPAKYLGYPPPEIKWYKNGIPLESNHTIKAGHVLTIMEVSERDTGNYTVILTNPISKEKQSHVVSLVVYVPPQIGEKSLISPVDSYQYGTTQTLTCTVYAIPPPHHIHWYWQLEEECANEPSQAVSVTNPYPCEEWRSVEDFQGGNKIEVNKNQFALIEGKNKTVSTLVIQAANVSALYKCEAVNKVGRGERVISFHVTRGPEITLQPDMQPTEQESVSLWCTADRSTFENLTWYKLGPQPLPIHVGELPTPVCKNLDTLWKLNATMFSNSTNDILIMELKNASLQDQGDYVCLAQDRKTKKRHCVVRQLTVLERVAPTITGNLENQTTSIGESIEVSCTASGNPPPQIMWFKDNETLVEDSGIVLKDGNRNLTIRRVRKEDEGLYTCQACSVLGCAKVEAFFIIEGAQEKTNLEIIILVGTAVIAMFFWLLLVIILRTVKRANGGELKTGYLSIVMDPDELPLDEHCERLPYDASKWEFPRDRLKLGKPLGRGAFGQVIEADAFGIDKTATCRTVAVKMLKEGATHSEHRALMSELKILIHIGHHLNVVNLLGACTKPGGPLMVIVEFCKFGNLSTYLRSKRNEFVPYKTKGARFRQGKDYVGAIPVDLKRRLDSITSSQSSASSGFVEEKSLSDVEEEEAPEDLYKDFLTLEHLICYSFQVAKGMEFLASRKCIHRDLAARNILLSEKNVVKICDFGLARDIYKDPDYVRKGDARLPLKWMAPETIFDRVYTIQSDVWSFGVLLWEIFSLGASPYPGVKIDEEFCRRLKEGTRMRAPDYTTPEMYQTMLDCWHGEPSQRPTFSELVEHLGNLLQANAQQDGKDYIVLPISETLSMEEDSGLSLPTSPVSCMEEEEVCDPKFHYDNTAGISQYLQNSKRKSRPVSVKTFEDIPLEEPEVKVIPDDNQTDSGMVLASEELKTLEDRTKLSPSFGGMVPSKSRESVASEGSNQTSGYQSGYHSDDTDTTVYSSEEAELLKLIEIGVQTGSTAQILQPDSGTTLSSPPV

[8] = biological target: Epidermal growth factor receptor (Homo sapiens, UniProt P00533); assay: Inhibition of EGFR after 1 hrs by luminescence assay
[9] = biological target: Platelet-derived growth factor receptor beta (Homo sapiens) (UniProt P09619); assay: Inhibition of PDGFR-beta at 50 uM after 1 hrs by luminescence assay
Chain of Platelet-derived growth factor receptor beta (Homo sapiens) (P09619 whole entry): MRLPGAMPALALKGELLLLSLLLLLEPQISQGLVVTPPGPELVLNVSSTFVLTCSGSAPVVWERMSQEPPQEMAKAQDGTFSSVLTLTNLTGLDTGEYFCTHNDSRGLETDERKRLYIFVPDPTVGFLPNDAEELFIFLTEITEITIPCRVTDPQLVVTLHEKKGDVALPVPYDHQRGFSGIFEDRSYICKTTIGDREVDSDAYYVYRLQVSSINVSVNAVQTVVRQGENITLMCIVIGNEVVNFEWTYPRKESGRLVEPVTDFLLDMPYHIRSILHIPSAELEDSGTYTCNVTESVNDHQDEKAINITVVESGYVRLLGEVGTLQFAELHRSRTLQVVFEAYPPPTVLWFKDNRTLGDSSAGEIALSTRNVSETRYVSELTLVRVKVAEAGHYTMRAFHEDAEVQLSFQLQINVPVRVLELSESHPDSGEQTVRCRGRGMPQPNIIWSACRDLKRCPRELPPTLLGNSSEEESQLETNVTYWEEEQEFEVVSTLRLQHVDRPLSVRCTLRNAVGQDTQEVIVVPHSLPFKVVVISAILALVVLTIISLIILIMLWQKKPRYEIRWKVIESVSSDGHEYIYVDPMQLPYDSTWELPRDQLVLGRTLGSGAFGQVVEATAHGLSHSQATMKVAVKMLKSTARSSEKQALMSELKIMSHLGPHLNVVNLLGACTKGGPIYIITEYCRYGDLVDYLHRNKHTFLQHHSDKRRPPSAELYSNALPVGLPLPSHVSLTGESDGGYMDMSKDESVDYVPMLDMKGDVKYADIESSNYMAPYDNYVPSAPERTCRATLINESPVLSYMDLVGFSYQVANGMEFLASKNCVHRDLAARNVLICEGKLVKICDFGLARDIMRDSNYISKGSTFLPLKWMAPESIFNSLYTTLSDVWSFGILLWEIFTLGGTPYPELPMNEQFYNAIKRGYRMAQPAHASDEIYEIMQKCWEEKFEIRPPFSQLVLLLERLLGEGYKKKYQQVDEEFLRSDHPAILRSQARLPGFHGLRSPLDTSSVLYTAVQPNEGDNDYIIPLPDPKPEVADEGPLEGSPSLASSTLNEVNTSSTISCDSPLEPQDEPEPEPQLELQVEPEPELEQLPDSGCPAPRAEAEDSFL

[10] = biological target: Vascular endothelial growth factor receptor 2 (Homo sapiens) (UniProt P35968); assay: Inhibition of VEGFR-2 at 20 uM after 1 hrs by luminescence assay
[11] = biological target: Platelet-derived growth factor receptor alpha (Homo sapiens) (UniProt P16234); assay: Inhibition of PDGFR-alpha at 20 uM after 1 hrs by luminescence assay
[12] = biological target: Platelet-derived growth factor receptor beta (Homo sapiens) (UniProt P09619); assay: Inhibition of PDGFR-beta at 20 uM after 1 hrs by luminescence assay

Compound: Cc1ccc(-c2nc3cc(NC(=O)CCl)ccc3[nH]2)cc1
inhibition [2]: 7.3% | Activity (HepG2 [3]): 28.6% | inhibition [4]: inactive | IC50 (HepG2 [1]): 2 µM | inhibition [5]: 42.7% | Activity (HepG2 [6]): 16.6% | inhibition [7]: 33.1% | IC50 [8]: 1.93 µM | inhibition [9]: 52.6%

Compound: O=C(Nc1ccc2[nH]c(-c3ccc(F)cc3)nc2c1)c1cnccn1
inhibition [10]: 0.58% | inhibition [11]: 2.55% | inhibition [12]: 0.27%

Compound: COc1cc2c(c(OC)c1OC)-c1ccc(OC)c(=O)cc1[C@@H](NC(C)=O)CC2 [COLCHICINE]
IC50 (HepG2 [1]): 0.05 µM

Compound: Cc1ccc(-c2nc3cc(NC(=O)CN4CCCC4)ccc3[nH]2)cc1
IC50 (HepG2 [1]): > 50 µM

Compound: CN[C@@H]1C[C@H]2O[C@@](C)([C@@H]1OC)n1c3ccccc3c3c4c(c5c6ccccc6n2c5c31)C(=O)NC4
inhibition [2]: 93.4% | inhibition [4]: 97% | inhibition [11]: 97.5% | inhibition [5]: 92.6%

Compound: Cc1ccc(-c2nc3cc(NC(=O)CCN4CCN(C)CC4)ccc3[nH]2)cc1
IC50 (HepG2 [1]): > 50 µM

Compound: Cn1cccc1-c1nc2cc(NC(=O)CCl)ccc2[nH]1
inhibition [2]: inactive | Activity (HepG2 [3]): 22.8% | inhibition [4]: 3.7% | IC50 (HepG2 [1]): 1.8 µM | inhibition [5]: 18.7% | Activity (HepG2 [6]): 18.7% | inhibition [7]: 16.5% | IC50 [8]: 12.1 µM | inhibition [9]: 17.8%

Compound: Cc1ccc(-c2nc3cc(NC(=O)CN4CCOCC4)ccc3[nH]2)cc1
IC50 (HepG2 [1]): > 50 µM

Compound: Cc1ccc(-c2nc3cc(NC(=O)CCCl)ccc3[nH]2)cc1
inhibition [2]: 3.3% | inhibition [4]: inactive | IC50 (HepG2 [1]): > 50 µM | inhibition [5]: 17% | inhibition [7]: inactive | inhibition [9]: 24.6%

Compound: CCN1CCN(CCC(=O)Nc2ccc3[nH]c(-c4cccn4C)nc3c2)CC1
IC50 (HepG2 [1]): > 50 µM

Compound: Cc1ccc(-c2nc3cc(NC(=O)CN4CCN(C)CC4)ccc3[nH]2)cc1
IC50 (HepG2 [1]): > 50 µM

Compound: CCN1CCN(CC(=O)Nc2ccc3[nH]c(-c4cccn4C)nc3c2)CC1
IC50 (HepG2 [1]): > 50 µM

Compound: Cc1cnc(C(=O)Nc2ccc3[nH]c(-c4ccc(F)cc4)nc3c2)cn1
inhibition [10]: 0.5% | inhibition [11]: 5.43% | inhibition [12]: 0.5%

Other lines, results leading:

IC50 (HepG2 [1]): > 50 µM
Compound: Cn1cccc1-c1nc2cc(NC(=O)CCCl)ccc2[nH]1

IC50 (HepG2 [1]): > 50 µM
Compound: Cc1ccc(-c2nc3cc(NC(=O)CN4CCCCC4)ccc3[nH]2)cc1

IC50 (HepG2 [1]): 11.3 µM
Compound: O=C(CCCl)Nc1ccc2[nH]c(-c3ccc(Br)cc3)nc2c1

IC50 (HepG2 [1]): 11.9 µM
Compound: Cc1ccc(-c2nc3cc(NC(=O)CCN4CCCCC4)ccc3[nH]2)cc1

IC50 (HepG2 [1]): 14.6 µM
Compound: CCN1CCN(CCC(=O)Nc2ccc3[nH]c(-c4ccc(C)cc4)nc3c2)CC1

IC50 (HepG2 [1]): 31.9 µM
Compound: CCN1CCN(CC(=O)Nc2ccc3[nH]c(-c4ccc(C)cc4)nc3c2)CC1

IC50 (HepG2 [1]): 27.4 µM
Compound: CCN1CCN(CCC(=O)Nc2ccc3[nH]c(-c4ccc(Br)cc4)nc3c2)CC1
